From patent US6184388A, “Substituted aminocycloalkylpyrrolidine derivatives and cis-substituted aminocycloalkylpyrrolidine derivatives” (Daiichi Pharmaceutical Co., Ltd., priority 1995, dated 2001)
Values after ≈ are worked out from the molar mass of the structure shown. Where a name gives a salt, the structure may show the parent alone.

Experiments:
[1] = test system: Slc:ddy five week male mice; test: acute toxicity, intravenous, mice; type: in vivo; details: for acute toxicity result compared with the table above: stated in words
Protocol: A solution of 5-amino-7-[4-(R)-(1-aminocyclopropyl)-3-(S)-fluoro-1-pyrrolidinyl]-6-fluoro-1-[2-(S)-fluoro-1-(R)-cyclopropyl]-1,4-dihydro-8-methyl-4-oxoquinoline-3-carboxylic acid (abbreviated as cis) hydrochloride of Example 15 or 5-amino-7-[4-(R)-(1-aminocyclopropyl)-3-(R)-fluoro-1-pyrrolidinyl]-6-fluoro-1-[2-(S)-fluoro-1-(R)-cyclopropyl]-1,4-dihydro-8-methyl-4-oxoquinoline-3-carboxylic acid (abbreviated as trans) hydrochloride in distilled water for injection was administered intravenously to Slc:ddy five week male mice (five mice per group) and the symptoms are observed.

[2] = test system: Ps. maltophilia, IID-1275; test: antimicrobial activity (MIC), standard method of the Japan Society of Chemotherapy; type: cell-based; details: for MIC: Stenotrophomonas maltophilia, IID1275, IID-1275 (Table 5: X. maltophilia, IID-1275), read-out: minimum inhibitory concentration (MIC)
Protocol: (§1) Examples of the first and second aspects of the present invention are given below by way of illustration and not by way of limitation. In this regard, the antibacterial and antimicrobial activities of the compounds of interest were measured in accordance with the standard method specified by the Japan Society of Chemotherapy. The results are shown in Tables 1 to 5 as a minimum inhibitory concentration (MIC, μg/ml). Unless otherwise indicated, all percents (%) are by weight.

E. coli, NIHJ = test: as above; type: cell-based; details: Escherichia coli, read-out: minimum inhibitory concentration (MIC)
Protocol: as §1

[3] = 150 mg/kg, *: died immediately after administration, test stopped when second mouse died

SMILES | acute toxicity result compared with the table above ([1]; 150 mg/kg) | MIC [2] | other results
C[C@H]1COc2c(N3C[C@@H](F)[C@@H](C4(N)CC4)C3)c(F)cc3c(=O)c(C(=O)O)cn1c23 [Example 17, 10-[4-(R)-(1-Aminocyclopropyl)-3-(S)-fluoro-1-pyrrolidinyl]-9-fluoro-2,3-dihydro-3-(S)-methyl-7-oxo-7H-pyrido[1,2,3-de][1,4]benzoxazine-6-carboxylic acid] | same result |  | 
Cc1c(N2C[C@@H](F)[C@@H](C3(N)CC3)C2)c(F)c(N)c2c(=O)c(C(=O)O)cn([C@@H]3C[C@@H]3F)c12 [Example 15, 5-Amino-7-[4-(R)-(1-aminocyclopropyl)-3-(S)-fluoro-1-pyrrolidinyl]-6-fluoro-1-[2-(S)-fluoro-1-(R)-cycloproyl]-1,4-dihydro-8-methyl-4-oxoguinoline-3-carboxylic acid hydrochloride] |  | 0.05 µg/mL | Number of death [1, 3]: 0/5
Cc1c(N2C[C@@H](F)[C@@H](C3(N)CCC3)C2)c(F)c(N)c2c(=O)c(C(=O)O)cn([C@@H]3C[C@@H]3F)c12 (single isomer, unassigned; isomer b) [Example 13] | same result |  | minimum inhibitory concentration (MIC) ([2]; IID-1275 (Table 5: X. maltophilia, IID-1275)): 0.20 µg/mL (≈ 0.444 µM)
COc1c(N2C[C@@H](F)[C@@H](C3(N)CC3)C2)c(F)c(N)c2c(=O)c(C(=O)O)cn([C@@H]3C[C@@H]3F)c12 [Example 16, 5-Amino-7-[4-(R)-(1-aminocyclopropyl)-3-(S)-fluoro-1-pyrrolidinyl]-6-fluoro-1-[2-(S)-fluoro-1-(R)-cyclopropyl]-1,4-dihydro-8-methoxy-4-oxoquinoline-3-carboxylic acid] | same result | 0.2 µg/mL (≈ 0.442 µM) | 
C[C@H]1COc2c(N3C[C@@H](F)[C@@H](C4(N)CC4)C3)c(F)c(N)c3c(=O)c(C(=O)O)cn1c23 [Example 21, 8-Amino-10-[4-(R)-(1-aminocyclopropyl)-3-(S)-fluoro-1-pyrrolidinyl]-9-fluoro-2,3-dihydro-3-(S)-methyl-7-oxo-7H-pyrido[1,2,3]-de[1,4]benzoxazine-6-carboxylic acid] | same result | 0.39 µg/mL (≈ 0.928 µM) | 
Cc1c(N2C[C@@H](CO)[C@@H](C3(N)CC3)C2)c(F)c(N)c2c(=O)c(C(=O)O)cn(C3CC3)c12 (relative stereo) [Example 14, 5-Amino-7-[cis-4-(1-aminocyclopropyl)-3-hydroxymethyl-1-pyrrolidinyl]-1-cyclopropyl-6-fluoro-1,4-dihydro-8-methyl-4-oxoguinoline-3-carboxylic acid] | same result |  | 
Cc1c(N2C[C@H](F)[C@@H](C3(N)CC3)C2)c(F)c(N)c2c(=O)c(C(=O)O)cn([C@@H]3C[C@@H]3F)c12 [Example 5, 5-Amino-7-[4-(R)-(1-aminocyclopropyl)-3-(R)-fluoro-1-pyrrolidinyl]-6-fluoro-1-[2-(S)-fluoro-1-(R)-cyclopropyl]-1,4-dihydro-8-methyl-4-oxoquinoline-3-carboxylic acid hydrochloride] |  |  | Number of death ([1]; 50 mg/kg): 0/5; Number of death ([1]; 100 mg/kg, *: died immediately after administration, test stopped when second mouse died): 2/2; Number of death [1, 3]: 2/2
C[C@H]1COc2c(N3C[C@@H](F)[C@@H](C4(N)CC4)C3)c(F)cc3c(=O)c(C(=O)O)cn1c23.Cl [Example 19, 10-[4-(R)-(1-Aminocyclopropyl)-3-(S)-fluoro-1-pyrrolidinyl]-9-fluoro-2,3-dihydro-3-(S)-methyl-7-oxo-7H-pyrido[1,2,3-de][1,4]benzoxazine-6-carboxylic acid hydrochloride] |  | 0.39 µg/mL | 
COc1c(N2C[C@@H](F)[C@@H](C3(N)CC3)C2)c(F)cc2c(=O)c(C(=O)O)cn([C@@H]3C[C@@H]3F)c12 [Example 12, 7-[4-(R)-(1-Aminocyclopropyl)-3-(S)-fluoro-1-pyrrolidinyl]-6-fluoro-1-[2-(S)-fluoro-1-(R)-cyclopropyl]-1,4-dihydro-8-methoxy-4-oxoguinoline-3-carboxylic acid] | same result |  | MIC (E. coli, NIHJ): ≤ 0.013 µg/mL
